Results taken from PubChem BioAssay (NCI).
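Step 1: Grow cells in 96-well plates. Step 2: Expose to compound for 48 hours at 5 concentrations. Step 3: Interpolate endpoints linearly; if unreached, use highest concentration. TGI marks complete inhibition of growth.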

Test system: OVCAR-8 ovarian
Experiment: inhibition of tumour cell growth, NCI panel, 48 h

Point of comparison: `CC(=O)O/N=C/c1c2ccccc2cc2ccccc12`, TGI 50.3 µM. Against it:
- Cc1cn([C@@H]2C[C@H](CO)[C@@H](O)C2)c(=O)[nH]c1=O — higher, > 100 µM
- CC1CN=C(N(C(=O)Nc2ccc(F)c(Cl)c2)c2ccccc2)S1 (stereo unspecified) — within 1.5-fold, 65.7 µM
- C=Cc1ccc(C)[n+](C[Si](C)(C)O[Si](C)(C)C[n+]2cc(C=C)ccc2C)c1 — higher, > 100 µM
- O=c1[nH]cnc(NC2C=C(CO)C(O)C2O)c1[N+](=O)[O-] (stereo unspecified) — higher, > 100 µM
- CCOC(=O)C1(C(=O)OCC)COS(=O)OC1 — higher, > 100 µM
- O=C(NC(COC(=O)C(Cc1ccccc1)NC(=O)c1ccccc1)Cc1ccccc1)c1ccccc1 (stereo unspecified) — not separable, > 50 µM
- CCOC(=O)c1nc2ccc(C(F)(F)F)cc2nc1Oc1ccc(C#N)cc1 — within 1.5-fold, 46.4 µM
- CC(=O)OCC1OC(n2cc(I)c(=O)[nH]c2=O)C(OC(C)=O)C(OC(C)=O)C1OC(C)=O (stereo unspecified) — higher, > 100 µM
- CC(O)CCCOC(c1ccccc1)(c1ccccc1)c1ccccc1 (stereo unspecified) — 1.8-fold lower, 28.2 µM
- COC(=O)c1cc2c(cc1CC1Cc3cc4c(cc3C1)CCC4)CCC2 — higher, > 100 µM
- CC(C(=O)N1C(=O)N(C(=O)C(C)C(O)c2ccccc2)C2CCCCC21)C(O)c1ccccc1 (stereo unspecified) — higher, > 100 µM
- O=C1NCCS(=O)(=O)N[C@@H](CC2=CC=CCC2)C(=O)N2CCCC12 (stereo partly specified) — higher, > 100 µM
- O=[N+]([O-])c1ccc(/C=C/c2cc(-c3ccccc3)nc3ccc4ccccc4c23)cc1 — higher, > 100 µM
- COc1ccc(-c2oc(/C=N/NC(N)=S)c([N+](=O)[O-])c2-c2ccc(OC)c(OC)c2)cc1OC — 1.6-fold higher, 81.8 µM
- CCC1=NC(C(F)(F)F)(C(F)(F)F)N=C(N2CCOCC2)O1 — higher, > 100 µM
- CCN1CCCC(NCc2c3ccccc3c(CNC3CCCN(CC)C3)c3ccccc23)C1 (stereo unspecified) — higher, > 74.4 µM
- COc1c(O)c2c3c(c(C)cc(O)c3c1O)C(=O)C(O)(C(C)(C)C(C)=O)C2=O (stereo unspecified) — higher, > 100 µM
- Nc1nc(N)c(N=O)c(Nc2ccc(Br)cc2)n1 — higher, > 100 µM
- O=C(NCCCN(CCCCN(CCCNC(=O)C(F)(F)F)Cc1ccc2ccccc2c1)Cc1ccc2ccccc2c1)C(F)(F)F — higher, > 100 µM
- CCC1=CC2CN3Cn4c(c(COCc5c6n(c7ccccc57)CN5CC7C=C(CC)C5C6(C(=O)OC)C7)c5ccccc54)C(C(=O)OC)(C2)C13 — higher, > 100 µM
- CCOC(CNCCC(=O)OC)OCC — not separable, > 10 µM
- COc1ccc(CC2c3c(cc(OC)c(OC)c3OC)CCN2C)cc1OC (stereo unspecified) — higher, > 100 µM
- C[C@@H](Cl)[C@H]1CCCN(Cc2ccc(Br)cc2)C1 — not separable, > 12.5 µM
- Cc1c(N2C(=O)C(Cl)C2c2ccc(Cl)cc2)c(=O)n(-c2ccccc2)n1C (stereo unspecified) — higher, > 100 µM
- COc1cc2nc(-c3cccs3)oc(=O)c2cc1OC — higher, > 100 µM

Test system: RPMI-8226 leukemia
Experiment: inhibition of tumour cell growth, NCI panel, 48 h

Point of comparison: `O=C(O)c1cc(-c2ccc3c(O)c(O)ccc3c2)ccc1O`, TGI 49.1 µM. Against it:
- Cc1ccc(CC[P+](=O)CCc2ccc(C)nc2)cn1 — higher, > 100 µM
- CC12CCC3C(CCC4CC(OC(=O)Cc5ccc(N(CCCl)CCCl)cc5)CCC43C)C1CCC(=O)N2 (stereo unspecified) — within 1.5-fold, 35.3 µM
- CC1CN=C(N(C(=O)Nc2ccc(F)c(Cl)c2)c2ccccc2)S1 (stereo unspecified) — higher, > 100 µM
- C=Cc1ccc(C)[n+](C[Si](C)(C)O[Si](C)(C)C[n+]2cc(C=C)ccc2C)c1 — higher, > 100 µM
- O=c1[nH]cnc(NC2C=C(CO)C(O)C2O)c1[N+](=O)[O-] (stereo unspecified) — higher, > 71.3 µM
- O=C(NC(COC(=O)C(Cc1ccccc1)NC(=O)c1ccccc1)Cc1ccccc1)c1ccccc1 (stereo unspecified) — higher, > 50 µM
- CCOC(=O)c1nc2ccc(C(F)(F)F)cc2nc1Oc1ccc(C#N)cc1 — higher, > 100 µM
- CC(=O)OCC1OC(n2cc(I)c(=O)[nH]c2=O)C(OC(C)=O)C(OC(C)=O)C1OC(C)=O (stereo unspecified) — higher, > 100 µM
- CC(O)CCCOC(c1ccccc1)(c1ccccc1)c1ccccc1 (stereo unspecified) — higher, > 55.6 µM
- COC(=O)c1cc2c(cc1CC1Cc3cc4c(cc3C1)CCC4)CCC2 — within 1.5-fold, 61.4 µM
- CC(C(=O)N1C(=O)N(C(=O)C(C)C(O)c2ccccc2)C2CCCCC21)C(O)c1ccccc1 (stereo unspecified) — higher, > 100 µM
- O=C1NCCS(=O)(=O)N[C@@H](CC2=CC=CCC2)C(=O)N2CCCC12 (stereo partly specified) — higher, > 100 µM
- O=[N+]([O-])c1ccc(/C=C/c2cc(-c3ccccc3)nc3ccc4ccccc4c23)cc1 — higher, > 100 µM
- COc1ccc(-c2oc(/C=N/NC(N)=S)c([N+](=O)[O-])c2-c2ccc(OC)c(OC)c2)cc1OC — within 1.5-fold, 41.5 µM
- CCC1=NC(C(F)(F)F)(C(F)(F)F)N=C(N2CCOCC2)O1 — higher, > 100 µM
- CCN1CCCC(NCc2c3ccccc3c(CNC3CCCN(CC)C3)c3ccccc23)C1 (stereo unspecified) — within 1.5-fold, 54.3 µM
- COc1c(O)c2c3c(c(C)cc(O)c3c1O)C(=O)C(O)(C(C)(C)C(C)=O)C2=O (stereo unspecified) — higher, > 100 µM
- CC(=O)O/N=C/c1c2ccccc2cc2ccccc12 — higher, > 100 µM
- O=C(NCCCN(CCCCN(CCCNC(=O)C(F)(F)F)Cc1ccc2ccccc2c1)Cc1ccc2ccccc2c1)C(F)(F)F — 6.9-fold lower, 7.15 µM
- CCC1=CC2CN3Cn4c(c(COCc5c6n(c7ccccc57)CN5CC7C=C(CC)C5C6(C(=O)OC)C7)c5ccccc54)C(C(=O)OC)(C2)C13 — higher, > 100 µM
- CCOC(CNCCC(=O)OC)OCC — not separable, > 10 µM
- COc1ccc(CC2c3c(cc(OC)c(OC)c3OC)CCN2C)cc1OC (stereo unspecified) — higher, > 100 µM
- C[C@@H](Cl)[C@H]1CCCN(Cc2ccc(Br)cc2)C1 — not separable, > 12.5 µM
- Cc1c(N2C(=O)C(Cl)C2c2ccc(Cl)cc2)c(=O)n(-c2ccccc2)n1C (stereo unspecified) — within 1.5-fold, 42.6 µM
- COc1cc2nc(-c3cccs3)oc(=O)c2cc1OC — higher, > 100 µM

Test system: SK-OV-3 ovarian
Experiment: inhibition of tumour cell growth, NCI panel, 48 h

Point of comparison: `CC12CCC3C(CCC4CC(OC(=O)Cc5ccc(N(CCCl)CCCl)cc5)CCC43C)C1CCC(=O)N2` (stereo unspecified), TGI 32.5 µM. Against it:
- Cc1ccc(CC[P+](=O)CCc2ccc(C)nc2)cn1 — higher, > 100 µM
- O=C(O)c1cc(-c2ccc3c(O)c(O)ccc3c2)ccc1O — higher, > 75 µM
- CCN(CC)CCCNC(=O)c1ccc([N+](=O)[O-])cc1O — higher, > 100 µM
